Assay [1] deals with T1, Human CARM1 (PRMT4) (Homo sapiens, UniProt Q86X55).
T1 construct: Flag-CARM1-His was eluted with 200 ug/ml FLAG peptide in buffer A; made in house; host or cells: HEK 293F cells infected with recombinant baculovirus (pFastBacMam)
T1 sequence (Q86X55 1-585 isoform Q86X55-1): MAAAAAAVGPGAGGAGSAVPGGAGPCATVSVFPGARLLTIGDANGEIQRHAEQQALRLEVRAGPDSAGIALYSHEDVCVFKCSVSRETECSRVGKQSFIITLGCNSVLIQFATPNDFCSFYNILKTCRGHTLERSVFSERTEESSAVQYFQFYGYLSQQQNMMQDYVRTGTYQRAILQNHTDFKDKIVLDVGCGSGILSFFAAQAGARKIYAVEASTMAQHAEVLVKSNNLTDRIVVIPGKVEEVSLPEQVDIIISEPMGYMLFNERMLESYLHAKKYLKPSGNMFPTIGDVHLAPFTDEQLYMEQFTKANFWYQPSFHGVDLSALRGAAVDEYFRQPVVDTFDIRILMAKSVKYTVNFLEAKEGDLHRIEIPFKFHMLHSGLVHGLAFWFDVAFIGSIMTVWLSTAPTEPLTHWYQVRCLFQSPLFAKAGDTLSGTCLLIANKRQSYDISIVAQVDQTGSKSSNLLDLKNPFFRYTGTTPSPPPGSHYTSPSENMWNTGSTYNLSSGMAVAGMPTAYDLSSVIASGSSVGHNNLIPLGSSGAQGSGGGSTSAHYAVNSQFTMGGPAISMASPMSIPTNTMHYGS
Kind of assay: CARM1 enzyme assay on peptide substrates (3H-SAM Flashplate). To be noted: Biochemical assay; CARM1 0.25 nM, 3H-SAM 30 nM, peptide 250 nM; read-out: Biochem IC50. The source says: S-adenosylmethionine (SAM), S-adenosylhomocysteine (SAH), bicine, Tween20, dimethylsulfoxide (DMSO), bovine skin gelatin (BSG), sodium butyrate and Tris(2-carboxyethyl)phosphine hydrochloride solution (TCEP) were purchased from Sigma-Aldrich at the highest level of purity possible. ^3H-SAM was purchase from American Radiolabeled Chemicals with a specific activity of 80 Ci/mmol. 384-well streptavidin Flashplates were purchased from PerkinElmer.
Peptide representative of human histone H3 residues 16-30 was synthesized with an N-terminal linker-affinity tag motif and a C-terminal amide cap by 21st Century Biochemicals. […] The sequence was Biot-Ahx-[…]-amide and contained a monomethylated arginine at position 26 (SEQ ID NO.:1).
The gene sequence encoding isoform1 containing a deletion of amino acids 539-561 was amplified subsequently and subcloned into pFastBacMam (Viva Biotech).
Recombinant baculovirus were generated according to Bac-to-Bac kit instructions (Life Technologies). Protein over-expression was accomplished by infecting exponentially growing HEK 293F cell culture at 1.3×10^6 cell/ml with virus (MOI=10) in the presence of 8 mM sodium butyrate. Infections were carried out at 37° C. for 48 hours, harvested by centrifugation, and stored at −80° C. for purification.
Column was washed with 500 mM NaCl in buffer A and Flag-CARM1-His was eluted with 200 ug/ml FLAG peptide in buffer A. Pooled fractions were dialyzed in 20 mM Tris, 150 mM NaCl, 5% glycerol and 1 mM DTT, pH 7.8.
The assays were all performed in a buffer consisting of 20 mM Bicine (pH=7.6), 1 mM TCEP, 0.005% BSG, and 0.002% Tween 20, prepared on the day of use. Compounds in 100% DMSO (1 ul) were spotted into a polypropylene 384-well V-bottom plates (Greiner) using a Platemate Plus outfitted with a 384-channel head (Thermo Scientific). DMSO (1 ul) was added to Columns 11, 12, 23, 24, rows A-H for the maximum signal control and 1 ul of SAH, a known product and inhibitor of CARM1, was added to columns 11, 12, 23, 24, rows I-P for the minimum signal control. A cocktail (40 ul) containing the CARM1 enzyme was added by Multidrop Combi (Thermo-Fisher). The compounds were allowed to incubate with CARM1 for 30 min at room temperature, then a cocktail (10 ul) containing ^3H-SAM and peptide was added to initiate the reaction (final volume=51 ul). The final concentrations of the components were as follows: CARM1 was 0.25 nM, ^3H-SAM was 30 nM, peptide was 250 nM, SAH in the minimum signal control wells was 1 mM, and the DMSO concentration was 2%. The assays were stopped by the addition of non-radiolabeled SAM (10 ul) to a final concentration of 300 uM, which dilutes the ^3H-SAM to a level where its incorporation into the peptide substrate is no longer detectable. 50 ul of the reaction in the 384-well polypropylene plate was then transferred to a 384-well Flashplate and the biotinylated peptides were allowed to bind to the streptavidin surface for at least 1 hour before being washed once with 0.1% Tween20 in a Biotek ELx405 plate washer. The plates were then read in a PerkinElmer TopCount plate reader to measure the quantity of ^3H-labeled peptide bound to the Flashplate surface, measured as disintegrations per minute (dpm) or alternatively, referred to as counts per minute (cpm).
where dpm=disintegrations per minute, cmpd=signal in assay well, and min and max are the respective minimum and maximum signal controls.
where top and bottom are the normally allowed to float, but may be fixed at 100 or 0 respectively in a 3-parameter fit. The Hill Coefficient normally allowed to float but may also be fixed at 1 in a 3-parameter fit. Y is the % inhibition and X is the compound concentration.

The subject of assay [2] is asymmetric di-methyl PABP1 in RKO cells. Kind of assay: RKO methylation assay: In Cell Western (ICW) for asymmetric di-methyl PABP1 (PABP1me2a). To be noted: Homo sapiens, RKO, 48 h, Cellular-based (PABP1me2a) ICW (In Cell Western) assay. The source says:
RKO adherent cells were purchased from ATCC (American Type Culture Collection), Manassas, Va., USA. DMEM/Glutamax medium, penicillin-streptomycin, heat inactivated fetal bovine serum, 0.05% trypsin and D-PBS were purchased from Life Technologies, Grand Island, N.Y., USA. Odyssey blocking buffer, 800CW goat anti-rabbit IgG (H+L) antibody, and Licor Odyssey infrared scanner were purchased from Licor Biosciences, Lincoln, Nebr., USA. Asymmetric di-methyl PABP1 antibody was purchased from Cell Signaling Technology, Danvers, Mass., USA. Methanol was purchased from VWR, Franklin, Mass., USA. 10% Tween 20 was purchased from KPL, Inc., Gaithersburg, Md., USA. Paraformaldehyde (PFA) was purchased from EM Sciences. DRAQ5 was purchased from Biostatus Limited, Leicestershire, UK.
RKO adherent cells were maintained in growth medium (DMEM/Glutamax medium supplemented with 10% v/v heat inactivated fetal bovine serum and 100 units/mL penicillin-streptomycin) and cultured at 37° C. under 5% CO2.
Cell treatment, In Cell Western (ICW) for detection of asymmetric di-methyl PABP1 and DNA content: RKO cells were seeded in assay medium at a concentration of 30,000 cells per mL to a poly-D-lysine coated 384 well culture plate (BD Biosciences 356697) with 50 μL per well. Compound (100 nL) from a 96-well source plate was added directly to 384 well cell plate. Plates were incubated at 37° C., 5% CO2 for 48 hours. After two days of incubation, plates were brought to room temperature outside of the incubator for ten minutes and blotted on paper towels to remove cell media. Cells were fixed for 20 minutes at room temperature by adding 50 ul of 8% PFA followed by aspiration of supernatant with the Biotek EL406 plate washer. Cells were then permeabilized by addition of 50 μL of ice cold 100% methanol directly to each well and incubated for 30 min at room temperature. After 30 min, plates were transferred to a Biotek EL406 plate washer and washed 2 times with 100 μL per well of wash buffer (1×PBS). Next 60 μL per well of Odyssey blocking buffer (Odyssey Buffer with 0.1% Tween 20 (v/v)) were added to each plate and incubated 1 hour at room temperature. Blocking buffer was removed and 20 μL per well of primary antibody was added (asymmetric-methyl PABP1) diluted 1:400 in Odyssey buffer with 0.1% Tween 20 (v/v)) and plates were incubated overnight (16 hours) at 4° C. Plates were washed 5 times with 100 μL per well of wash buffer. Next 20 μL per well of secondary antibody was added (1:800 800CW goat anti-rabbit IgG (H+L) antibody, 1:2000 DRAQ5 in Odyssey buffer with 0.1% Tween 20 (v/v)) and incubated for 1 hour at room temperature. The plates were washed 5 times with 100 μL per well wash buffer then 2 times with 100 μL per well of water. Plates were allowed to dry at room temperature then imaged on the Licor Odyssey machine which measures integrated intensity at 700 nm and 800 nm wavelengths. Both 700 and 800 channels were scanned.
First, the ratio for each well was determined by:
Each plate included fourteen control wells of DMSO only treatment (minimum inhibition) as well as fourteen control wells for maximum inhibition treated with 20 μM of a reference compound. The average of the ratio values for each control type was calculated and used to determine the percent […] for each test well in the plate. Reference compound was serially diluted three-fold in DMSO for a total of nine test concentrations, beginning at 20 μM.
Percent inhibition was determined and IC50 curves were generated using triplicate wells per concentration of compound.

pIC50: −log10 of the molar value.

In general, pIC50 refers to the negative decadic logarithm of the IC50, by convention in mol/L.

`CNC[C@@H](O)COc1ccc(Cl)c(-c2nc(-c3c(C)noc3C)c(C)c(N3CC4(CCN(C(=O)N(C)C)C4)C3)n2)c1` [Example 48]: the negative logarithm of the IC50 (pIC50) in assay [1] is 7.90; in assay [2], 6.62.

For the compound `CNC[C@@H](O)COc1ccc(Cl)c(-c2nc(-c3c(C)noc3C)c(C)c(N3CC4(CCN(S(C)(=O)=O)C4)C3)n2)c1` [Example 49], the values for the pIC50 in assay [1] and in assay [2] were 8.11 and 6.40, respectively.

For `CNC[C@@H](O)COc1ccc(Cl)c(-c2nc(-c3c(C)noc3C)c(C)c(N3CC4(CCN(C5COC5)C4)C3)n2)c1` [Example 50], the results for the negative-log IC50 (pIC50) in assay [1] and in assay [2] were 8.06 and 6.81, respectively.

Turning to `CNC[C@@H](O)COc1ccc(Cl)c(-c2nc(-c3c(C)noc3C)c(C)c(N3CC4(CCN(C(C)=O)CC4)C3)n2)c1` [Example 51], the results for the pIC50 in assay [1] and in assay [2] were 7.97 and 6.45, respectively.

For the compound `CNC[C@@H](O)COc1ccc(Cl)c(-c2nc(-c3c(C)noc3C)c(C)c(N3CC4(CCN(S(C)(=O)=O)CC4)C3)n2)c1` [Example 52], the negative logarithm of the IC50 (pIC50) was 8.14 in assay [1] and 6.64 in assay [2].

Take `CNC[C@@H](O)COc1ccc(Cl)c(-c2nc(-c3c(C)noc3C)c(C)c(N3C[C@H]4CN(C(=O)OC)C[C@H]4C3)n2)c1` [Example 53]: the negative-log IC50 (pIC50) in assay [1] was 8.28; in assay [2], 6.70.

Consider `CNC[C@@H](O)COc1ccc(Cl)c(-c2nc(-c3c(C)noc3C)c(C)c(N3CC4=C(CN(CC(F)F)C4)C3)n2)c1` [Example 54], for which the pIC50 in assay [1] is 8.36; in assay [2] it was 7.35.

As to `CNC[C@@H](O)COc1ccc(Cl)c(-c2nc(-c3c(C)noc3C)c(C)c(N3CC4=C(CN(C(=O)OC)C4)C3)n2)c1` [Example 55], the pIC50 in assay [1] was 8.44; in assay [2], 7.89.

Take `CNC[C@@H](O)COc1ccc(F)c(-c2nc(-c3c(C)noc3C)c(C)c(N3CC4(CCC(F)CC4)C3)n2)c1` [Example 56]: the pIC50 in assay [1] is 8.42; in assay [2], 6.95.

`CNC[C@@H](O)COc1ccc(F)c(-c2nc(-c3c(C)noc3C)c(C)c(N3CC4(CC=CCC4)C3)n2)c1` [Example 57]: the values for the pIC50 in assay [1] and in assay [2] were 8.47 and 6.56, respectively.

As for `CNC[C@@H](O)COc1ccc(Cl)c(-c2nc(-c3c(Cl)cnn3C)c(C)c(N3Cc4cccnc4C3)n2)c1` [Example 58], the values for the pIC50 in assay [1] and in assay [2] were 8.85 and 7.14, respectively.

Consider `CNC[C@@H](O)COc1cccc(-c2nc(-c3c(C)cnn3C)c(C)c(N3Cc4cccnc4C3)n2)c1` [Example 59], for which the negative-log IC50 (pIC50) was 8.74 in assay [1] and 6.53 in assay [2].

As for `CNC[C@@H](O)COc1cccc(-c2nc(-c3c(C)cnn3C)c(C)c(N3Cc4cncnc4C3)n2)c1` [Example 60], the pIC50 in assay [1] is 8.41; in assay [2] it was 6.41.

As to `CNC[C@@H](O)COc1cccc(-c2nc(-c3c(C)cnn3C)c(C)c(N3CC4(CCN(C(=O)OC)CC4)C3)n2)c1` [Example 61], the pIC50 in assay [1] is 7.86; in assay [2], 6.06.

Consider `CNC[C@@H](O)COc1ccc(Cl)c(-c2nc(-c3c(C)noc3C)c(C)c(N3CC4(CN(CC(F)F)C4)C3)n2)c1` [Example 62], for which the figures for the pIC50 in assay [1] and in assay [2] were 7.19 and 6.28, respectively.

On to `CNC[C@@H](O)COc1ccc(Cl)c(-c2nc(-c3c(C)noc3C)c(C)c(N3CC4(CCN(C(C)=O)C4)C3)n2)c1` [Example 63], for which the results for the negative logarithm of the IC50 (pIC50) in assay [1] and in assay [2] were 7.96 and 5.69, respectively.

As for `CNC[C@@H](O)COc1ccc(Cl)c(-c2nc(-c3c(C)noc3C)c(C)c(N3CC4(CCN(C5COC5)CC4)C3)n2)c1` [Example 64], the pIC50 was 7.96 in assay [1] and 6.95 in assay [2].

Turning to `CNC[C@@H](O)COc1ccc(Cl)c(-c2nc(-c3c(C)noc3C)c(C)c(N3C[C@]4(C)CN(C(=O)OC)C[C@]4(C)C3)n2)c1` [Example 65], the negative-log IC50 (pIC50) is 8.11 in assay [1] and 6.63 in assay [2].

Take `CNC[C@@H](O)COc1ccc(Cl)c(-c2nc(-c3c(C)noc3C)c(C)c(N3Cc4nc(C)n(C)c(=O)c4C3)n2)c1` [Example 66]: the negative-log IC50 (pIC50) in assay [1] was 8.43; in assay [2], 6.58.

Regarding `CNC[C@@H](O)COc1ccc(Cl)c(-c2nc(-c3c(C)noc3C)c(C)c(N3CC4(CCC(F)(F)CC4)C3)n2)c1` [Example 67], the pIC50 in assay [1] was 8.30; in assay [2], 7.15.

Values taken from patent US20170305922A1, “CARM1 INHIBITORS AND USES THEREOF” (Epizyme, Inc., priority 2014, published 2017).
